Results on 27 compounds are retold here after patent publication US6506772B1, “Substituted [1,2,4]triazolo[1,5a]pyridine derivatives with activity as adenosine receptor ligands” (Hoffmann-La Roche Inc., priority 2000, dated 2003).

Test [1] has as its target T1, human adenosine A2A receptor (Homo sapiens, UniProt P29274).
T1 construct: expressed in transfected cells; host or cells: CHO cells, Semliki Forest virus expression system; membrane preparation
Nature of the test: Human adenosine A2A receptor [3H]-SCH-58261 binding assay. To be noted: for Ki: affinity to human adenosine A2A receptor, read-out: Ki HA2A; for selectivity (A1/A2a): calculated ratio of the affinity to the HA1 receptor to the HA2a receptor.

Another test deals with T2, HA1 adenosine receptor (Homo sapiens, UniProt P30542).
T2 sequence (P30542 1-326): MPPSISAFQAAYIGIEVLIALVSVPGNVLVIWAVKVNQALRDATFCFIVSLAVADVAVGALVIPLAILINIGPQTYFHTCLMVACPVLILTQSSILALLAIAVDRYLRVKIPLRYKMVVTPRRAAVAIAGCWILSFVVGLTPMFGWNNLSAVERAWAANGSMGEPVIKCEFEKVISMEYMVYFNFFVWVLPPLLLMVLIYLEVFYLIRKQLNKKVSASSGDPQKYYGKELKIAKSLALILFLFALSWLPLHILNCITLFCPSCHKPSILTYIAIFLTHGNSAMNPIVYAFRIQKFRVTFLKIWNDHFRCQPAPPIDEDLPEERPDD
Nature of the test: Human adenosine A1 receptor affinity (Ki hA1). It counts as binding. To be noted: affinity to human adenosine A1 receptor.

The term Ki denotes a measure of affinity in units of concentration, obtained from inhibition or displacement.

T1 sequence (P29274 whole entry): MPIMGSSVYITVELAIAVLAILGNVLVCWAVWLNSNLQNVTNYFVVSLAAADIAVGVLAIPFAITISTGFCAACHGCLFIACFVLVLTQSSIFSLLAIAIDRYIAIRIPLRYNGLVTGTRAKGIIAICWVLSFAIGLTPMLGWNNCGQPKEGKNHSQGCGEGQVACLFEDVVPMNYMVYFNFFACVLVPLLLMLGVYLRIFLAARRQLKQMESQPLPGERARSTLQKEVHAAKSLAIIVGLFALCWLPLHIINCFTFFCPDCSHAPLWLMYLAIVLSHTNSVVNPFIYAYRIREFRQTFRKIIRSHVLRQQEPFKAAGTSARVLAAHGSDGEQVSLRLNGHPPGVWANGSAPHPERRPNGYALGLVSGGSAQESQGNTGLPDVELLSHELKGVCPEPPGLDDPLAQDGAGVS

On to `CC(C)N(Cc1ccccc1)C(=O)c1cc(N)n2nc(-c3cccn3C)nc2c1` [Example 135, 5-Amino-2-(1-methyl-1H-pyrrol-2-yl)-[1,2,4]triazolo[1,5-a]pyridine-7-carboxylic acid benzyl-isopropyl-amide], for which, in test [1], the Ki was determined as 166 nM and the “selectivity (A1/A2a)” value was 10.9. The compound also had an inhibitory constant (Ki) at HA1 adenosine receptor of 1820 nM.

As to `CC(C)N(Cc1ccccc1)C(=O)c1cc(N)n2nc(-c3ccco3)nc2c1` [Example 136, 5-Amino-2-furan-2-yl-[1,2,4]triazolo[1,5-a]pyridine-7-carboxylic acid benzyl-isopropyl-amide], in test [1], the Ki worked out at 12 nM and the “selectivity (A1/A2a)” value is given as 18.5. Also, at HA1 adenosine receptor, affinity was put at a Ki of 222 nM.

In the case of `CCCCNC(=O)c1cc(N)n2nc(-c3ccc(C)o3)nc2c1` [Example 137, 5-Amino-2-(5-methyl-furan-2-yl)-[1,2,4]triazolo[1,5-a]pyridine-7-carboxylic acid butylamide], in test [1], the inhibition constant Ki came to 11 nM and the “selectivity (A1/A2a)” value is reported as 19.8. On HA1 adenosine receptor, this compound had a Ki of 218 nM.

Regarding `Cc1ccc(-c2nc3cc(C(=O)NC4CCCCC4)cc(N)n3n2)o1` [Example 138, 5-Amino-2-(5-methyl-furan-2-yl)-[1,2,4]triazolo[1,5-a]pyridine-7-carboxylic acid cyclohexylamide], the results for the Ki (in test [1]; on HA1 adenosine receptor) were 123 nM and 1270 nM, respectively. For the same compound, the “selectivity (A1/A2a)” value in test [1] is 10.3.

Turning to `Cc1ccc(-c2nc3cc(C(=O)N4CCOCC4)cc(N)n3n2)o1` [Example 139, [5-Amino-2-(5-methyl-furan-2-yl)-[1,2,4]triazolo[1,5-a]pyridin-7-yl]-morpholin-4-yl-methanone], the Ki in test [1] worked out at 74.5 nM; at HA1 adenosine receptor it was 1750 nM. Besides, the “selectivity (A1/A2a)” value in test [1] is 23.5.

For `Cc1ccc(-c2nc3cc(C(=O)N(C)Cc4ccccc4)cc(N)n3n2)o1` [Example 140, 5-Amino-2-(5-methyl-furan-2-yl)-[1,2,4]triazolo[1,5-a]pyridine-7-carboxylic acid benzyl-methyl-amide], in test [1], the inhibition constant (Ki) was 7.3 nM and the “selectivity (A1/A2a)” value is given as 14.7. Moreover, on HA1 adenosine receptor, the Ki was 107 nM.

Consider `Cc1ccc(-c2nc3cc(C(=O)N(Cc4ccccc4)C(C)C)cc(N)n3n2)o1` [Example 141, 5-Amino-2-(5-methyl-furan-2-yl)-[1,2,4]triazolo[1,5-a]pyridine-7-carboxylic acid benzyl-isopropyl-amide], for which, in test [1], the Ki was determined as 5.9 nM and the “selectivity (A1/A2a)” value is reported as 20.8. In addition, at HA1 adenosine receptor, the inhibition constant (Ki) came out at 123 nM.

Turning to `COc1ccc(CNC(=O)c2cc(N)n3nc(-c4ccc(C)o4)nc3c2)cc1OC` [Example 142, 5-Amino-2-(5-methyl-furan-2-yl)-[1,2,4]triazolo[1,5-a]pyridine-7-carboxylic acid 3,4-dimethoxy-benzylamide], in test [1], the Ki was 281 nM and the “selectivity (A1/A2a)” value is on record as 14.6. Further, the Ki on HA1 adenosine receptor was determined as 4120 nM.

As for `CCN(C(=O)c1cc(N)n2nc(-c3sccc3C)nc2c1)C(C)C` [Example 143, 5-Amino-2-(3-methyl-thiophen-2-yl)-[1,2,4]triazolo[1,5-a]pyridine-7-carboxylic acid ethyl-isopropyl-amide], the Ki in test [1] came out at 121 nM; on HA1 adenosine receptor, 1090 nM. Moreover, the “selectivity (A1/A2a)” value in test [1] was 9.0.

For `Cc1ccsc1-c1nc2cc(C(=O)N(Cc3ccccc3)C(C)C)cc(N)n2n1` [Example 144, 5-Amino-2-(3-methyl-thiophen-2-yl)-[1,2,4]triazolo[1,5-a]pyridine-7-carboxylic acid benzyl-isopropyl-amide], in test [1], the inhibition constant (Ki) was found to be 63.4 nM and the “selectivity (A1/A2a)” value is given as 12.9. This compound gave a Ki at HA1 adenosine receptor of 819 nM.

In the case of `CCCCNC(=O)c1cc(N)n2nc(-c3ccccc3)nc2c1` [Example 145, 5-Amino-2-phenyl-[1,2,4]triazolo[1,5-a]pyridine-7-carboxylic acid butylamide], in test [1], the Ki came to 26 nM and the “selectivity (A1/A2a)” value is given as 4.1. The compound also yielded a Ki on HA1 adenosine receptor of 106 nM.

For the compound `CCN(CC)C(=O)c1cc(N)n2nc(-c3ccccc3)nc2c1` [Example 146, 5-Amino-2-phenyl-[1,2,4]triazolo[1,5-a]pyridine-7-carboxylic acid diethylamide], the values for the Ki (in test [1]; on HA1 adenosine receptor) were 130 nM and 1960 nM, respectively. Also, in test [1], the “selectivity (A1/A2a)” value is reported as 15.0.

Regarding `Nc1cc(C(=O)NC2CCCCC2)cc2nc(-c3ccccc3)nn12` [Example 147, 5-Amino-2-phenyl-[1,2,4]triazolo[1,5-a]pyridine-7-carboxylic acid cyclohexylamide], in test [1], the Ki was 140 nM and the “selectivity (A1/A2a)” value was 3.2. Also, the affinity on HA1 adenosine receptor, expressed as Ki, was 453 nM.

For `CN(C(=O)c1cc(N)n2nc(-c3ccccc3)nc2c1)C1CCCCC1` [Example 148, 5-Amino-2-phenyl-[1,2,4]triazolo[1,5-a]pyridine-7-carboxylic acid cyclohexyl-methyl-amide], the Ki in test [1] amounted to 148 nM; on HA1 adenosine receptor it was 1200 nM. The “selectivity (A1/A2a)” value in test [1] is 8.1.

Consider `Nc1cc(C(=O)NC2CCc3ccccc32)cc2nc(-c3ccccc3)nn12` (stereo not drawn) [Example 149, 5-Amino-2-phenyl-[1,2,4]triazolo[1,5-a]pyridine-7-carboxylic acid indan-1-ylamide], for which, in test [1], the Ki was 57.4 nM and the “selectivity (A1/A2a)” value is 1.7. Affinity on HA1 adenosine receptor was put at a Ki of 98.1 nM.

Consider `Nc1cc(C(=O)N2CCCC2)cc2nc(-c3ccccc3)nn12` [Example 150, (5-Amino-2-phenyl-[1,2,4]triazolo[1,5-a]pyridin-7-yl)-pyrrolidin-1-yl-methanone], for which, in test [1], the Ki worked out at 82.3 nM and the “selectivity (A1/A2a)” value was 8.6. The compound also returned a Ki at HA1 adenosine receptor of 711 nM.

Turning to `Nc1cc(C(=O)N2CCCCC2)cc2nc(-c3ccccc3)nn12` [Example 151, (5-Amino-2-phenyl-[1,2,4]triazolo[1,5-a]pyridin-7-yl)-piperidin-1-yl-methanone], in test [1], the Ki was found to be 85.5 nM and the “selectivity (A1/A2a)” value is reported as 10.8. At HA1 adenosine receptor, this compound gave a Ki of 928 nM.

As to `CN(Cc1ccccc1)C(=O)c1cc(N)n2nc(-c3ccccc3)nc2c1` [Example 152, 5-Amino-2-phenyl-[1,2,4]triazolo[1,5-a]pyridine-7-carboxylic acid benzyl-methyl-amide], in test [1], the Ki amounted to 32.8 nM and the “selectivity (A1/A2a)” value is recorded as 11.2. The same compound showed an inhibition constant Ki at HA1 adenosine receptor of 367 nM.

Regarding `CCN(CC)C(=O)c1cc(N)n2nc(-c3ccoc3)nc2c1` [Example 153, 5-Amino-2-furan-3-yl-[1,2,4]triazolo[1,5-a]pyridine-7-carboxylic acid diethylamide], in test [1], the Ki was determined as 301 nM and the “selectivity (A1/A2a)” value is 16.0. This compound also displayed a Ki at HA1 adenosine receptor of 4800 nM.

For `Nc1cc(C(=O)NC2CCCCC2)cc2nc(-c3ccoc3)nn12` [Example 154, 5-Amino-2-furan-3-yl-[1,2,4]triazolo[1,5-a]pyridine-7-carboxylic acid cyclohexylamide], the values for the Ki (in test [1]; on HA1 adenosine receptor) were 88.1 nM and 1180 nM, respectively. Also, the “selectivity (A1/A2a)” value in test [1] is given as 13.3.

Turning to `Nc1cc(C(=O)N2CCCCC2)cc2nc(-c3ccoc3)nn12` [Example 155, (5-Amino-2-furan-3-yl-[1,2,4]triazolo[1,5-a]pyridin-7-yl)-piperidin-1-yl-methanone], the Ki is 301 nM in test [1] and 5850 nM on HA1 adenosine receptor. Moreover, the “selectivity (A1/A2a)” value in test [1] is listed as 19.4.

Turning to `Nc1cc(C(=O)NCc2ccccc2Cl)cc2nc(-c3ccoc3)nn12` [Example 156, 5-Amino-2-furan-3-yl-[1,2,4]triazolo[1,5-a]pyridine-7-carboxylic acid 2-chloro-benzylamide], in test [1], the inhibitory constant (Ki) came to 17.1 nM and the “selectivity (A1/A2a)” value is 13.3. Affinity on HA1 adenosine receptor was put at a Ki of 228 nM.

For `Nc1cc(C(=O)NCc2ccccc2Br)cc2nc(-c3ccoc3)nn12` [Example 157, 5-Amino-2-furan-3-yl-[1,2,4]triazolo[1,5-a]pyridine-7-carboxylic acid 2-bromo-benzylamide], in test [1], the inhibitory constant (Ki) came to 18 nM and the “selectivity (A1/A2a)” value is given as 12.8. On HA1 adenosine receptor, this compound gave a Ki of 231 nM.

For the compound `CCCCNC(=O)c1cc(N)n2nc(-c3ccccc3O)nc2c1` [Example 158, 5-Amino-2-(2-hydroxy-phenyl)-[1,2,4]triazolo[1,5-a]pyridine-7-carboxylic acid butylamide], in test [1], the Ki was found to be 87.5 nM and the “selectivity (A1/A2a)” value is listed as 3.0. For the same compound, on HA1 adenosine receptor, the Ki stood at 258 nM.

With `Nc1cc(C(=O)NCc2ccccc2Cl)cc2nc(-c3ccccc3O)nn12` [Example 159, 5-Amino-2-(2-hydroxy-phenyl)-[1,2,4]triazolo[1,5-a]pyridine-7-carboxylic acid 2-chloro-benzylamide], the figures for the Ki (in test [1]; at HA1 adenosine receptor) were 105 nM and 279 nM, respectively. Also, the “selectivity (A1/A2a)” value in test [1] is reported as 2.7.

Consider `Nc1cc(C(=O)NCc2ccccc2Br)cc2nc(-c3ccccc3O)nn12` [Example 160, 5-Amino-2-(2-hydroxy-phenyl)-[1,2,4]triazolo[1,5-a]pyridine-7-carboxylic acid 2-bromo-benzylamide], for which, in test [1], the Ki was 126 nM and the “selectivity (A1/A2a)” value is given as 1.1. The same compound registered a Ki at HA1 adenosine receptor of 139 nM.

In the case of `CCCCNC(=O)c1cc(N)n2nc(-c3cccs3)nc2c1` [Example 161, 5-Amino-2-thiophen-2-yl-[1,2,4]triazolo[1,5-a]pyridine-7-carboxylic acid butylamide], the Ki in test [1] amounted to 28 nM; on HA1 adenosine receptor, 161 nM. Moreover, in test [1], the “selectivity (A1/A2a)” value is on record as 5.7.
